Experimental data taken from US20260085067A1, “CYCLIC SULFONAMIDE RIBONUCLEOTIDE REDUCTASE (RNR) INHIBITORS AND USES THEREOF” (Boundless Bio, Inc., priority 2022, published 2026).

What was measured:
RNR (RNR1:RNR2 1:1) = biological target: T1, RNR (RNR1:RNR2 1:1) (Homo sapiens, UniProt P23921); assay: RNR enzyme activity, rapid-fire mass spectrometry (RF/MS) assay; type: biochemical; details: [RNR] 50 nM, 1:1 RNR1:RNR2; CDP 5 μM; ATP 1 mM; 37° C., 45 min; compounds screened up to 50 μM
T1 sequence (P23921 1-792): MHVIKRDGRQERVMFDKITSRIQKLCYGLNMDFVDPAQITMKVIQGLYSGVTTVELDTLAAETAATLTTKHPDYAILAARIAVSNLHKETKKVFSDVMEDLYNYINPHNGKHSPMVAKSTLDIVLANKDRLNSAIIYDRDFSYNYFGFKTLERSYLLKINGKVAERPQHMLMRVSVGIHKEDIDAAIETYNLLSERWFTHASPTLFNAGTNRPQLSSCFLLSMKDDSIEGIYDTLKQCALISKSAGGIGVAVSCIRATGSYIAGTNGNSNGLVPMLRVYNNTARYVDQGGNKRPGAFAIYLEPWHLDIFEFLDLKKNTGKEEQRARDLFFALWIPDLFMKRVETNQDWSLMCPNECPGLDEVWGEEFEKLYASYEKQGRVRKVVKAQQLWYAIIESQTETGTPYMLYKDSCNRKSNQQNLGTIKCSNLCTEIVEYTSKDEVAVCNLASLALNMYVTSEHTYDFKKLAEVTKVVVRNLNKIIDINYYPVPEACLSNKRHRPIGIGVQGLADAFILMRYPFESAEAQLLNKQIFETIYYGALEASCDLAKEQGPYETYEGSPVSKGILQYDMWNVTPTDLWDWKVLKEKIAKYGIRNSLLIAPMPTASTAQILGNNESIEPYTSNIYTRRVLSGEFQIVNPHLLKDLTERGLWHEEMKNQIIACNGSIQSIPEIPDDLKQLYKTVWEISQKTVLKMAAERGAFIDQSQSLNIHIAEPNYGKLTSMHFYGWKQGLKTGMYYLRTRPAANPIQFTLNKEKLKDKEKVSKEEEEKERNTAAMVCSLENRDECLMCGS
How it was run: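 Human RNR (50 nM final, RNR1:RNR2 1:1) pre-incubated 15 min at room temperature, then reacted 45 min at 37 °C with 5 μM CDP and 1 mM ATP, no NADPH. Reaction quenched with 6% HCOOH; product quantified by rapid-fire mass spectrometry.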

[1] = tested on: pCHK1 (S345) in Colo320 DM cells; assay: Alphalisa assay, detection of pCHK1 (S345) in Colo320 DM cells; type: cell-based, human; details: Homo sapiens, COLO 320DM, compound overnight (approximately 16 hours)
How it was run: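 Phospho-CHK1 (S345) read by AlphaLisa SureFire in lysates of human colorectal Colo320 DM cells. Compound treatment ran overnight (~16 h, 37 °C, DMSO <0.5%) on cells seeded the day before.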

CC(=O)c1cc(Cl)cc2c1S(=O)(=O)N([C@H](c1n[nH]c(=O)o1)[C@@H](C)c1c(F)ccc(C)c1C)CO2 [Example 103, 5-((1S,2S)-1-(8-acetyl-6-chloro-1,1-dioxidobenzo[e][1,4,3]oxathiazin-2 (3H)-yl)-2-(6-fluoro-2,3-dimethylphenyl)propyl)-1,3,4-oxadiazol-2 (3H)-one]
IC50 (RNR (RNR1:RNR2 1:1)): 1 to 10 µM
IC50 [1]: 5 to 10 µM

Cc1ccc(F)c([C@H](C)[C@@H](c2n[nH]c(=O)o2)N2CN(C)c3cc(Cl)cc(C(=O)N(C)C)c3S2(=O)=O)c1C [Example 39]
IC50 (RNR (RNR1:RNR2 1:1)): 10 to 100 µM
IC50 [1]: > 50 µM

Cc1ccc(F)c([C@@H](C)[C@@H](c2n[nH]c(=O)o2)N2CCOc3c(ccc(Cl)c3[C@H](C)N(C)C)S2(=O)=O)c1C (single isomer, unassigned) [Example 53]
IC50 (RNR (RNR1:RNR2 1:1)): < 0.02 µM
IC50 [1]: 1 to 5 µM

Cc1ccc(F)c([C@@H](C)[C@@H](c2n[nH]c(=O)o2)N2CN(C)c3cc(Cl)cc(C(=O)N(C)C)c3S2(=O)=O)c1C [Example 37, 6-chloro-2-((1S,2R)-2-(6-fluoro-2,3-dimethylphenyl)-1-(5-oxo-4,5-dihydro-1,3,4-oxadiazol-2-yl)propyl)-N,N,4-trimethyl-3,4-dihydro-2H-benzo[e][1,2,4]thiadiazine-8-carboxamide 1,1-dioxide]
IC50 (RNR (RNR1:RNR2 1:1)): 1 to 10 µM
IC50 [1]: > 50 µM

Cc1ccc(F)c([C@@H](C)[C@@H](c2n[nH]c(=O)o2)N2CN(C)c3cc(Cl)cc(CBr)c3S2(=O)=O)c1C [Example 76, 5-((1S,2R)-1 (8-(bromomethyl)-6-chloro-4-methyl-1,1-dioxido-3,4-dihydro-2H-benzo[e][1,2,4]thiadiazin-2-yl)-2-(6-fluoro-2,3-dimethylphenyl)propyl)-1,3,4-oxadiazol-2 (3H)-one]
IC50 (RNR (RNR1:RNR2 1:1)): < 0.02 µM
IC50 [1]: 1 to 5 µM

Cc1ccc(F)c([C@@H](C)[C@@H](c2n[nH]c(=O)o2)N2CN(C3CCN(C)CC3)c3cc(Cl)ccc3S2(=O)=O)c1C [Example 47, 5-((1S,2R)-1-(6-chloro-4-(1-methylpiperidin-4-yl)-1,1-dioxido-3,4-dihydro-2H-benzo[e][1,2,4]thiadiazin-2-yl)-2-(6-fluoro-2,3-dimethylphenyl)propyl)-1,3,4-oxadiazol-2 (3H)-one]
IC50 (RNR (RNR1:RNR2 1:1)): < 0.02 µM
IC50 [1]: 1 to 5 µM

Cc1ccc(F)c([C@@H](C)[C@@H](c2n[nH]c(=O)o2)N2CN(C)C(=O)c3cc(Cl)ccc3S2(=O)=O)c1C [Example 35, 5-((1S,2R)-1-(7-chloro-4-methyl-1,1-dioxido-5-oxo-4,5-dihydrobenzo[f][1,2,4]thiadiazepin-2 (3H)-yl)-2-(6-fluoro-2,3-dimethylphenyl)propyl)-1,3,4-oxadiazol-2 (3H)-one]
IC50 (RNR (RNR1:RNR2 1:1)): 0.02 to 0.1 µM
IC50 [1]: 10 to 50 µM

Cc1cc2c(cc1Cl)OCCN([C@H](c1n[nH]c(=O)o1)[C@H](C)c1c(F)ccc(C)c1C)S2(=O)=O [Example 15, 5-((1S,2R)-1-(7-chloro-8-methyl-1,1-dioxido-3,4-dihydro-2H-benzo[b][1,4,5]oxathiazepin-2-yl)-2-(6-fluoro-2,3-dimethylphenyl)propyl)-1,3,4-oxadiazol-2 (3H)-one]
IC50 (RNR (RNR1:RNR2 1:1)): 0.1 to 1 µM
IC50 [1]: > 50 µM

Cc1ccc(F)c([C@@H](C)[C@@H](c2n[nH]c(=O)o2)N2CCOc3cc(Cl)cc(C)c3S2(=O)=O)c1C [Example 24, 5-((1S,2R)-1-(7-chloro-9-methyl-1,1-dioxido-3,4-dihydro-2H-benzo[b][1,4,5]oxathiazepin-2-yl)-2-(6-fluoro-2,3-dimethylphenyl)propyl)-1,3,4-oxadiazol-2 (3H)-one]
IC50 (RNR (RNR1:RNR2 1:1)): 0.1 to 1 µM
IC50 [1]: > 50 µM

Cc1ccc(F)c([C@@H](C)[C@@H](c2n[nH]c(=O)o2)N2CN(C)c3cc(O)ccc3S2(=O)=O)c1C [Example 66, 5-((1S,2R)-2-(6-fluoro-2,3-dimethylphenyl)-1-(6-hydroxy-4-methyl-1,1-dioxido-3,4-dihydro-2H-benzo[e][1,2,4]thiadiazin-2-yl)propyl)-1,3,4-oxadiazol-2 (3H)-one]
IC50 (RNR (RNR1:RNR2 1:1)): 0.02 to 0.1 µM
IC50 [1]: 10 to 50 µM

Cc1ccc(F)c([C@@H](C)[C@@H](c2n[nH]c(=O)o2)N2CN(C)c3cc(Cl)cc(C(N)=O)c3S2(=O)=O)c1C [Example 22, 6-chloro-2-((1S,2R)-2-(6-fluoro-2,3-dimethylphenyl)-1-(5-oxo-4,5-dihydro-1,3,4-oxadiazol-2-yl)propyl)-4-methyl-3,4-dihydro-2H-benzo[e][1,2,4]thiadiazine-8-carboxamide 1,1-dioxide]
IC50 (RNR (RNR1:RNR2 1:1)): < 0.02 µM
IC50 [1]: ≤ 1 µM

Cc1ccc(F)c([C@@H](C)[C@@H](c2n[nH]c(=O)o2)N2CCN(C)c3cc(Cl)ccc3S2(=O)=O)c1C [Example 13, 5-((1S,2R)-1-(7-chloro-5-methyl-1,1-dioxido-4,5-dihydrobenzo[f][1,2,5]thiadiazepin-2 (3H)-yl)-2-(6-fluoro-2,3-dimethylphenyl)propyl)-1,3,4-oxadiazol-2 (3H)-one]
IC50 (RNR (RNR1:RNR2 1:1)): 0.02 to 0.1 µM
IC50 [1]: 1 to 5 µM

Cc1ccc(F)c([C@@H](C)[C@@H](c2n[nH]c(=O)o2)N2CCOc3c(ccc(Cl)c3[C@@H](C)N(C)C)S2(=O)=O)c1C (single isomer, unassigned) [Example 54]
IC50 (RNR (RNR1:RNR2 1:1)): < 0.02 µM
IC50 [1]: 1 to 5 µM

CC(=O)c1cc(Cl)cc2c1S(=O)(=O)N([C@H](c1n[nH]c(=O)o1)[C@H](C)c1c(F)ccc(C)c1C)CN2C1CC1 [Example 95, 5-((1S,2R)-1-(8-acetyl-6-chloro-4-cyclopropyl-1,1-dioxido-3,4-dihydro-2H-benzo[e][1,2,4]thiadiazin-2-yl)-2-(6-fluoro-2,3-dimethylphenyl)propyl)-1,3,4-oxadiazol-2 (3H)-one]
IC50 (RNR (RNR1:RNR2 1:1)): < 0.02 µM
IC50 [1]: ≤ 1 µM

Cc1ccc(F)c([C@@H](C)[C@@H](c2n[nH]c(=O)o2)N2CCOc3cc(Cl)cc(CO)c3S2(=O)=O)c1C [Example 78, 5-((1S,2R)-1-(7-chloro-9-(hydroxymethyl)-1,1-dioxido-3,4-dihydro-2H-benzo[b][1,4,5]oxathiazepin-2-yl)-2-(6-fluoro-2,3-dimethylphenyl)propyl)-1,3,4-oxadiazol-2 (3H)-one]
IC50 (RNR (RNR1:RNR2 1:1)): < 0.02 µM
IC50 [1]: ≤ 1 µM

Cc1ccc(F)c([C@@H](C)[C@@H](c2n[nH]c(=O)o2)N2CCOc3c(ccc(Cl)c3C(C)O)S2(=O)=O)c1C (single isomer, unassigned) [Example 28]
IC50 (RNR (RNR1:RNR2 1:1)): 1 to 10 µM
IC50 [1]: > 50 µM

Cc1ccc(F)c([C@@H](C)[C@@H](c2n[nH]c(=O)o2)N2CN(C[C@@H]3CCCO3)c3cc(Cl)ccc3S2(=O)=O)c1C [Example 62, 5-((1S,2R)-1-(6-chloro-1,1-dioxido-4-(((S)-tetrahydrofuran-2-yl)methyl)-3,4-dihydro-2H-benzo[e][1,2,4]thiadiazin-2-yl)-2-(6-fluoro-2,3-dimethylphenyl)propyl)-1,3,4-oxadiazol-2 (3H)-one]
IC50 (RNR (RNR1:RNR2 1:1)): < 0.02 µM
IC50 [1]: ≤ 1 µM

Cc1ccc(F)c([C@@H](C)[C@@H](c2n[nH]c(=O)o2)N2CN(C3CN(CC(F)(F)F)C3)c3cc(Cl)ccc3S2(=O)=O)c1C [Example 96, 5-((1S,2R)-1-(6-chloro-1,1-dioxido-4-(1-(2,2,2-trifluoroethyl)azetidin-3-yl)-3,4-dihydro-2H-benzo[e][1,2,4]thiadiazin-2-yl)-2-(6-fluoro-2,3-dimethylphenyl)propyl)-1,3,4-oxadiazol-2 (3H)-one]
IC50 (RNR (RNR1:RNR2 1:1)): < 0.02 µM
IC50 [1]: ≤ 1 µM

Cc1ccc(F)c([C@@H](C)[C@@H](c2n[nH]c(=O)o2)N2COc3cc(Cl)cc(C(=O)N(C)C)c3S2(=O)=O)c1C [Example 41, 6-chloro-2-((1S,2R)-2-(6-fluoro-2,3-dimethylphenyl)-1-(5-oxo-4,5-dihydro-1,3,4-oxadiazol-2-yl)propyl)-N,N-dimethyl-2,3-dihydrobenzo[e][1,4,3]oxathiazine-8-carboxamide 1,1-dioxide]
IC50 (RNR (RNR1:RNR2 1:1)): 0.1 to 1 µM
IC50 [1]: > 50 µM

Cc1ccc(F)c([C@@H](C)[C@@H](c2n[nH]c(=O)o2)N2CN([C@@H]3CCN(C)C3)c3cc(Cl)ccc3S2(=O)=O)c1C [Example 74, 5-((1S,2R)-1-(6-chloro-4-((R)-1-methylpyrrolidin-3-yl)-1,1-dioxido-3,4-dihydro-2H-benzo[e][1,2,4]thiadiazin-2-yl)-2-(6-fluoro-2,3-dimethylphenyl)propyl)-1,3,4-oxadiazol-2 (3H)-one]
IC50 (RNR (RNR1:RNR2 1:1)): < 0.02 µM
IC50 [1]: ≤ 1 µM
